Source: ChEMBL document CHEMBL5154872 (Eur J Med Chem, 2022)
In brackets after ≈: the same amount, converted by molar mass. One block for each compound: values may come before it.

What was measured:
[1] = molecular target: T1, Programmed cell death 1 ligand 1 (Homo sapiens, UniProt Q9NZQ7); assay: Binding affinity towards His-tagged recombinant human PD-L1 measured by MicroScale Thermophoresis (MST) assay
[2] = molecular target: T1, Programmed cell death 1 ligand 1; assay: Binding affinity towards His-tagged recombinant human PD-L1 measured by MST dimerization binding assay; format: single protein
[3] = Reactivation of mouse CTLL-2 cells pretreated with human PD-L1 assessed as increase in cell proliferation and measured by flow cytometry assay; format: functional, cell-based
[4] = Solubility in PBS at pH 7.4; format: physicochemical
[5] = 1-Octanol/phosphate buffered-saline distribution coefficient, logD of compound at pH 7.4 measured after 2 hrs by LC-MS analysis; format: physicochemical
[6] = Stability in CD-1 mouse plasma assessed as half-ife at 10 uM; format: ADME, cell-free
[7] = molecular target: Programmed cell death protein 1/Programmed cell death 1 ligand 1 (Homo sapiens, UniProt Q9NZQ7); assay: Inhibition of human PD-1/PD-L1 interaction in CHO-K1 cells transfected with PD-1-YFP/SHP-2-CFP and measured by FRET assay; format: cell-based
Chain of Programmed cell death protein 1/Programmed cell death 1 ligand 1 (Q15116 whole entry): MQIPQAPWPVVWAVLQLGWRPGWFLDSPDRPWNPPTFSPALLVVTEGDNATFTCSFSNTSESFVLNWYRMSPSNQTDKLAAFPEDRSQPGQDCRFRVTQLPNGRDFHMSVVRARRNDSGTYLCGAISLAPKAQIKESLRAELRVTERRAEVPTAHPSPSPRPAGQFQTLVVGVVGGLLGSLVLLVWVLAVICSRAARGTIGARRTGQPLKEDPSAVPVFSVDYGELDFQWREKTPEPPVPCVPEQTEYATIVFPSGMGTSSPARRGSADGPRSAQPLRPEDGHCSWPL
Chain of Programmed cell death protein 1/Programmed cell death 1 ligand 1 (Q9NZQ7 whole entry): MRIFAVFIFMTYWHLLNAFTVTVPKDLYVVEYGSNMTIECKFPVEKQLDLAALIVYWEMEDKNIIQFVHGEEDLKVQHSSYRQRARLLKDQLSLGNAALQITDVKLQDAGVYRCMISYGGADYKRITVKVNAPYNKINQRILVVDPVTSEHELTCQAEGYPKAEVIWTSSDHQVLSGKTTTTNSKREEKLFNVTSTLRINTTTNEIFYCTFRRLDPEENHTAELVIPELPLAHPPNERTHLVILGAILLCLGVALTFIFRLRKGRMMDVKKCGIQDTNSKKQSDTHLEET

T1 sequence (Q9NZQ7 whole entry): as above

SMILES: O=C1CC(c2ccccc2Cl)=NN1c1ccccn1
- Kd [1]: > 500000 nM

- solubility [4]: > 200 µM
- logD at 2 h [5]: 0.85
- half-life at 10 µM [6]: 16 min
SMILES: CC1=NN(c2ccccn2)C(=O)C1
- Kd [2]: 53 nM
- IC50 [3]: 102 nM

SMILES: O=C1CC(c2ccc(C(F)(F)F)cc2)=NN1c1ccccn1
- Kd [1]: 156 nM
- IC50 [7]: 143 nM

SMILES: O=C1CC(c2cccc(Cl)c2)=NN1c1ccccn1
- Kd [1]: > 500000 nM

SMILES: CCC1=NN(c2ccccn2)C(=O)C1
- Kd [1]: > 500000 nM

SMILES: CC(C)C1=NN(c2ccccn2)C(=O)C1
- Kd [1]: > 500000 nM

SMILES: O=C1CC(c2ccc(Cl)c(Cl)c2)=NN1c1ccccn1
- Kd [1]: 584 nM

SMILES: CC(C)(C)C1=NN(c2ccccn2)C(=O)C1
- Kd [1]: > 500000 nM

SMILES: Cc1ccccc1C1=NN(c2ccccn2)C(=O)C1
- Kd [1]: > 500000 nM

SMILES: Cc1ccc(C2=NN(c3ccccn3)C(=O)C2)cc1
- Kd [1]: 1090 nM

- solubility [4]: 199 µM (≈ 53.2 µg/mL)
- logD at 2 h [5]: 2.82
- half-life at 10 µM [6]: 12 min
SMILES: COc1ccc(C2=NN(c3ccccn3)C(=O)C2)cc1
- Kd [2]: 2 nM
- IC50 [3]: 75 nM

SMILES: CCCCC1=NN(c2ccccn2)C(=O)C1
- Kd [1]: > 500000 nM

- solubility [4]: 80.9 µM (≈ 21.6 µg/mL)
- logD at 2 h [5]: 2.56
- half-life at 10 µM [6]: 10.9 min
SMILES: COc1ccccc1C1=NN(c2ccccn2)C(=O)C1
- Kd [2]: 46 nM
- IC50 [3]: 14 nM

SMILES: Cc1cccc(C2=NN(c3ccccn3)C(=O)C2)c1
- Kd [1]: > 500000 nM

SMILES: O=C1CC(c2ccccc2F)=NN1c1ccccn1
- Kd [1]: > 500000 nM

SMILES: O=C1CC(c2ccccn2)=NN1c1ccccn1
- Kd [1]: > 500000 nM

- solubility [4]: 183 µM (≈ 54.4 µg/mL)
- logD at 2 h [5]: 2.19
- half-life at 10 µM [6]: 30 min
SMILES: COc1ccc(C2=NN(c3ccccn3)C(=O)C2)cc1OC
- Kd [1]: 1.19 nM
- Kd [2]: 0.7 nM
- IC50 [7]: 7.3 nM
- IC50 [3]: 4.1 nM

SMILES: CCCC1=NN(c2ccccn2)C(=O)C1
- Kd [1]: > 500000 nM

SMILES: O=C1CC(C23CC4CC(CC(C4)C2)C3)=NN1c1ccc(Cl)cc1Cl
- Kd [2]: 24 nM
- IC50 [7]: 9 nM
- IC50 [3]: 54 nM
- solubility [4]: 1.9 µM (≈ 0.69 µg/mL)
- logD at 2 h [5]: 4.28
- half-life at 10 µM [6]: 31 min
